{"source": "paper PMC2808025", "about": "(Current Chemical Genomics, 2009)", "key": {"PAP": {"tested_on": "PAP", "conditions": "cited from earlier work"}, "human PAP": {"biological_target": "T1, human PAP (Homo sapiens, UniProt P15309)", "T1 sequence (P15309 33-386)": "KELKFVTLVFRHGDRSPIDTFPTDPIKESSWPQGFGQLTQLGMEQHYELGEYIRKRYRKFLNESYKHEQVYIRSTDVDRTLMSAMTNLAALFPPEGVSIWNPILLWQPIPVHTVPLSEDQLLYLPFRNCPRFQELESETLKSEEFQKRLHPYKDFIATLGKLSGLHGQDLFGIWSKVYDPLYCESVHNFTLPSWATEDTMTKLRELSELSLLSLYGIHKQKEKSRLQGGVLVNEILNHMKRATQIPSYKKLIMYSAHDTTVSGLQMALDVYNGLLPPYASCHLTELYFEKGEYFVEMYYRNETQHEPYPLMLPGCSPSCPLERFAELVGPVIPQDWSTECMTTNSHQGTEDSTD", "format": "biochemical"}}, "note": "Values joined by “and” are separate entries in the source; they are usually repeats but may differ in a detail not shown here. Equal entries are not always repeated. Where two headings read alike, the source gives them in different places.", "data": [{"molecule": "O=P(O)(O)C(NCc1ccccc1)c1ccccc1", "note": "(stereo not drawn) [BABPA, α-benzylaminobenzylphosphonic acid]", "values": [{"measurement": "IC50", "setting": "PAP; known PAP inhibitor", "value": "nanomolar range"}]}, {"molecule": "Cc1cc(=O)oc2c(F)c(OP(=O)(O)O)c(F)cc12", "note": "[DiFMUP, difluoro-4-methylumbelliferyl phosphate]", "values": [{"measurement": "Km", "setting": "human PAP", "value": 918, "unit": "µM"}]}, {"molecule": "O=C([O-])[C@H](O)[C@@H](O)C(=O)[O-].[Na+].[Na+]", "note": "[sodium L-(+)-tartrate]", "values": [{"measurement": "Hill slope", "setting": "human PAP", "value": "0.96 and 0.89"}, {"measurement": "IC50", "setting": "human PAP", "value": "53 µM and 40 µM"}, {"measurement": "IC50", "setting": "PAP; read-out: published IC50", "value": 29, "unit": "µM"}]}]}
